From ChEMBL document CHEMBL1138574, “Regioselective synthesis and stereochemical structure of anti-tumor active dispiro[3H-indole-3,2'-pyrrolidine-3',3''-piperidine]-2(1H),4''-diones” (2009)

How the values were obtained:
Format in all cases: functional
Rattus norvegicus [1] = test: Antiinflammatory activity in Wister albino rat assessed as inhibition of carrageenan-induced paw oedema at 50 mg/kg, ip administered 1 hr before carrageenan challenge measured after 24 hrs of induction of inflammation relative to control; conditions: route intraperitoneal
NCI-H23 = test: Antitumor activity against human NCI-H23 cells assessed as cell growth at 10 uM after 48 hrs by sulforhodamine B assay; conditions: NCI-H23, 48 h, read-out: Activity
UACC-62 = test: Antitumor activity against human UACC62 cells assessed as cell growth at 10 uM after 48 hrs by sulforhodamine B assay; conditions: UACC-62, 48 h, read-out: Activity
U-251 = test: Antitumor activity against human U251 cells assessed as cell growth at 10 uM after 48 hrs by sulforhodamine B assay; conditions: U-251, 48 h, read-out: Activity
NCI/ADR-RES = test: Antitumor activity against human NCI/ADR-RES cells assessed as cell growth at 10 uM after 48 hrs by sulforhodamine B assay; conditions: read-out: Activity
OVCAR-4 = test: Antitumor activity against human OVCAR4 cells assessed as cell growth at 10 uM after 48 hrs by sulforhodamine B assay; conditions: OVCAR-4, 48 h, read-out: Activity
MOLT-4 = test: Antitumor activity against human MOLT4 cells assessed as cell growth at 10 uM after 48 hrs by sulforhodamine B assay; conditions: MOLT-4, 48 h, read-out: Activity
OVCAR-3 = test: Antitumor activity against human OVCAR-3 cells assessed as cell growth at 10 uM after 48 hrs by sulforhodamine B assay; conditions: OVCAR-3, 48 h, read-out: Activity
Malme-3M = test: Antitumor activity against human MALME-3M cells assessed as cell growth at 10 uM after 48 hrs by sulforhodamine B assay; conditions: read-out: Activity
DU-145 = test: Antitumor activity against human DU145 cells assessed as cell growth at 10 uM after 48 hrs by sulforhodamine B assay; conditions: DU-145, 48 h, read-out: Activity
COLO 205 = test: Antitumor activity against human COLO205 cells assessed as cell growth at 10 uM after 48 hrs by sulforhodamine B assay; conditions: COLO 205, 48 h, read-out: Activity
Rattus norvegicus [2] = test: Antiinflammatory activity in Wister albino rat assessed as inhibition of carrageenan-induced paw oedema at 50 mg/kg, ip administered 1 hr before carrageenan challenge measured after 4 hrs of induction of inflammation relative to indomethacin; conditions: route intraperitoneal
CAKI-1 = test: Antitumor activity against human Caki1 cells assessed as cell growth at 10 uM after 48 hrs by sulforhodamine B assay; conditions: CAKI-1, 48 h, read-out: Activity
A549 = test: Antitumor activity against human A549 cells assessed as cell growth at 10 uM after 48 hrs by sulforhodamine B assay; conditions: A549, 48 h, read-out: Activity
SNB-19 = test: Antitumor activity against human SNB19 cells assessed as cell growth at 10 uM after 48 hrs by sulforhodamine B assay; conditions: SNB-19, 48 h, read-out: Activity
786-0 = test: Antitumor activity against human 786-0 cells assessed as cell growth at 10 uM after 48 hrs by sulforhodamine B assay; conditions: 786-0, 48 h, read-out: Activity
HOP-62 = test: Antitumor activity against human HOP62 cells assessed as cell growth at 10 uM after 48 hrs by sulforhodamine B assay; conditions: HOP-62, 48 h, read-out: Activity
Rattus norvegicus [3] = test: Antiinflammatory activity in Wister albino rat assessed as inhibition of carrageenan-induced paw oedema at 50 mg/kg, ip administered 1 hr before carrageenan challenge measured after 3 hrs of induction of inflammation relative to control; conditions: route intraperitoneal
HCC 2998 = test: Antitumor activity against human HCC2998 cells assessed as cell growth at 10 uM after 48 hrs by sulforhodamine B assay; conditions: HCC 2998, 48 h, read-out: Activity
SK-MEL-28 = test: Antitumor activity against human SK-MEL-28 cells assessed as cell growth at 10 uM after 48 hrs by sulforhodamine B assay; conditions: SK-MEL-28, 48 h, read-out: Activity
UO-31 = test: Antitumor activity against human UO31 cells assessed as cell growth at 10 uM after 48 hrs by sulforhodamine B assay; conditions: UO-31, 48 h, read-out: Activity
[4] = Antitumor activity against human Hs 578T cells assessed as cell growth at 10 uM after 48 hrs by sulforhodamine B assay; conditions: read-out: Activity
Rattus norvegicus [5] = test: Antiinflammatory activity in Wister albino rat assessed as inhibition of carrageenan-induced paw oedema at 50 mg/kg, ip administered 1 hr before carrageenan challenge measured after 2 hrs of induction of inflammation relative to control; conditions: route intraperitoneal
SK-MEL-2 = test: Antitumor activity against human SK-MEL-2 cells assessed as cell growth at 10 uM after 48 hrs by sulforhodamine B assay; conditions: SK-MEL-2, 48 h, read-out: Activity
SN12C = test: Antitumor activity against human SN12C cells assessed as cell growth at 10 uM after 48 hrs by sulforhodamine B assay; conditions: read-out: Activity
NCI-H322M = test: Antitumor activity against human NCI-H322M cells assessed as cell growth at 10 uM after 48 hrs by sulforhodamine B assay; conditions: read-out: Activity
MCF7 = test: Antitumor activity against human MCF7 cells assessed as cell growth at 10 uM after 48 hrs by sulforhodamine B assay; conditions: MCF7, 48 h, read-out: Activity
MDA-MB-468 = test: Antitumor activity against human MDA-MB-468 cells assessed as cell growth at 10 uM after 48 hrs by sulforhodamine B assay; conditions: MDA-MB-468, 48 h, read-out: Activity
HCT-15 = test: Antitumor activity against human HCT15 cells assessed as cell growth at 10 uM after 48 hrs by sulforhodamine B assay; conditions: HCT-15, 48 h, read-out: Activity
SNB-75 = test: Antitumor activity against human SNB75 cells assessed as cell growth at 10 uM after 48 hrs by sulforhodamine B assay; conditions: SNB-75, 48 h, read-out: Activity
MDA-MB-435 = test: Antitumor activity against human MDA-MB-435 cells assessed as cell growth at 10 uM after 48 hrs by sulforhodamine B assay; conditions: MDA-MB-435, 48 h, read-out: Activity
CCRF-CEM = test: Antitumor activity against human CCRF-CEM cells assessed as cell growth at 10 uM after 48 hrs by sulforhodamine B assay; conditions: read-out: Activity
M14 = test: Antitumor activity against human M14 cells assessed as cell growth at 10 uM after 48 hrs by sulforhodamine B assay; conditions: M14, 48 h, read-out: Activity
HCT-116 = test: Antitumor activity against human HCT116 cells assessed as cell growth at 10 uM after 48 hrs by sulforhodamine B assay; conditions: HCT-116, 48 h, read-out: Activity
HOP-92 = test: Antitumor activity against human HOP92 cells assessed as cell growth at 10 uM after 48 hrs by sulforhodamine B assay; conditions: HOP-92, 48 h, read-out: Activity
SF-539 = test: Antitumor activity against human SF539 cells assessed as cell growth at 10 uM after 48 hrs by sulforhodamine B assay; conditions: SF-539, 48 h, read-out: Activity

SMILES	inhibition in vivo at 50 mg/kg (Rattus norvegicus [1])	growth at 10 µM (NCI-H23)	growth at 10 µM (UACC-62)	growth at 10 µM (U-251)	growth at 10 µM (NCI/ADR-RES)	growth at 10 µM (OVCAR-4)	growth at 10 µM (MOLT-4)	growth at 10 µM (OVCAR-3)	growth at 10 µM (Malme-3M)	growth at 10 µM (DU-145)	growth at 10 µM (COLO 205)	inhibition in vivo at 50 mg/kg (Rattus norvegicus [2])	growth at 10 µM (CAKI-1)	growth at 10 µM (A549)	growth at 10 µM (SNB-19)	growth at 10 µM (786-0)	growth at 10 µM (HOP-62)	inhibition in vivo at 50 mg/kg (Rattus norvegicus [3])	growth at 10 µM (HCC 2998)	growth at 10 µM (SK-MEL-28)	further results
CN1C/C(=C\c2ccc(-c3cccs3)cc2)C(=O)[C@]2(C1)[C@@H](c1ccc(-c3cccs3)cc1)CN(C)[C@@]21C(=O)N(C)c2ccccc21	74.3%	26.1%	47.6%	62.8%	37.7%	37.3%	27.2%	33.6%	76.4%	67.4%	69%	124%	57.2%	58%	65.3%	65.8%	58.8%	73.9%	40.6%	80%	growth at 10 µM (UO-31): 45.4%; growth at 10 µM [4]: 79.3%; inhibition in vivo at 50 mg/kg (Rattus norvegicus [5]): 68.3%; growth at 10 µM (SK-MEL-2): 68.6%; growth at 10 µM (SN12C): 64.3%; growth at 10 µM (NCI-H322M): 75%; growth at 10 µM (MCF7): 50.4%; growth at 10 µM (MDA-MB-468): 33.4%; growth at 10 µM (HCT-15): 62.1%; growth at 10 µM (SNB-75): 64.5%; growth at 10 µM (MDA-MB-435): 40.6%; growth at 10 µM (CCRF-CEM): 56.4%; growth at 10 µM (M14): 58.5%; growth at 10 µM (HCT-116): 30.6%; growth at 10 µM (HOP-92): 41.1%; growth at 10 µM (SF-539): 75.4%
COc1ccc(/C=C2\CN(C)C[C@@]3(C2=O)[C@@H](c2ccccc2)CN(C)[C@@]32C(=O)Nc3ccccc32)cc1	52.9%	50.4%	47.8%	52.1%	36.5%	52.7%	17.2%	50.3%	58.7%	70.3%	67.4%	139%	54.3%	44.4%	61.6%	57.2%	69.9%	76.5%	65.5%	76.3%	growth at 10 µM (UO-31): 40.4%; growth at 10 µM [4]: 74.7%; inhibition in vivo at 50 mg/kg (Rattus norvegicus [5]): 76.4%; growth at 10 µM (SK-MEL-2): 60.7%; growth at 10 µM (SN12C): 58.4%; growth at 10 µM (NCI-H322M): 79.7%; growth at 10 µM (MCF7): 30.9%; growth at 10 µM (MDA-MB-468): 58.9%; growth at 10 µM (HCT-15): 50.8%; growth at 10 µM (SNB-75): 59.4%; growth at 10 µM (MDA-MB-435): 60.7%; growth at 10 µM (CCRF-CEM): 45.4%; growth at 10 µM (M14): 55.6%; growth at 10 µM (HCT-116): 26.8%; growth at 10 µM (HOP-92): 46.7%; growth at 10 µM (SF-539): 74%
CN1C/C(=C\c2ccc(Cl)cc2)C(=O)[C@]2(C1)[C@@H](c1ccc(Cl)cc1)CN(C)[C@@]21C(=O)N(C)c2ccccc21	49.3%	33.9%	59.9%	68.6%	56.9%	43.1%	43.2%	60.5%	73.5%	88.4%	99.6%	80.9%	56.6%	70%	77.3%	73.9%	71%	44.5%	71.9%	104%	growth at 10 µM (UO-31): 56.6%; growth at 10 µM [4]: 97.3%; inhibition in vivo at 50 mg/kg (Rattus norvegicus [5]): 62.2%; growth at 10 µM (SK-MEL-2): 71.9%; growth at 10 µM (SN12C): 62.9%; growth at 10 µM (NCI-H322M): 79.1%; growth at 10 µM (MCF7): 86.4%; growth at 10 µM (MDA-MB-468): 66.9%; growth at 10 µM (HCT-15): 76.2%; growth at 10 µM (SNB-75): 65.2%; growth at 10 µM (MDA-MB-435): 87.8%; growth at 10 µM (CCRF-CEM): 31.5%; growth at 10 µM (M14): 77.8%; growth at 10 µM (HCT-116): 29.9%; growth at 10 µM (HOP-92): 61.6%; growth at 10 µM (SF-539): 78.1%
CN1C/C(=C\c2ccc(Cl)cc2)C(=O)[C@]2(C1)[C@@H](c1ccc(Cl)cc1)CN(C)[C@@]21C(=O)Nc2ccccc21	38.2%	44.8%	67.2%	64.8%	62.1%	49.6%	37.4%	48.4%	91.9%	83.8%	92.7%	74.7%	45.8%	62.4%	76.5%	71.8%	73.6%	49.6%	70.7%	101%	growth at 10 µM (UO-31): 43.2%; growth at 10 µM [4]: 79.7%; inhibition in vivo at 50 mg/kg (Rattus norvegicus [5]): 63%; growth at 10 µM (SK-MEL-2): 76.2%; growth at 10 µM (SN12C): 64.1%; growth at 10 µM (NCI-H322M): 68.7%; growth at 10 µM (MCF7): 44.9%; growth at 10 µM (MDA-MB-468): 56.6%; growth at 10 µM (HCT-15): 68.5%; growth at 10 µM (SNB-75): 56.7%; growth at 10 µM (MDA-MB-435): 61.1%; growth at 10 µM (CCRF-CEM): 51.3%; growth at 10 µM (M14): 78.3%; growth at 10 µM (HCT-116): 45.9%; growth at 10 µM (HOP-92): 56.2%; growth at 10 µM (SF-539): 83.3%
